Assay results from PubChem BioAssay AID608 (Sanford-Burnham Center for Chemical Genomics, 2007).
Calls of active or inactive are those of the source. The rule behind the calls is not given here.

molecular target: Peptidyl-prolyl cis-trans isomerase FKBP1A (Homo sapiens) (UniProt P62942); test: small-molecule binding to FKBP12 – biophysical, NMR detection (AID 608); conditions: purified FKBP12
Sequence (P62942 whole entry, looked up): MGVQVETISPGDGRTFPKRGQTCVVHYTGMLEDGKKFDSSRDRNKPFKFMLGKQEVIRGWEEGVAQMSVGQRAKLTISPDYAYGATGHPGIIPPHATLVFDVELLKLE

Compound | Kd
CSc1nsc(SCc2cnc(C)nc2N)n1 | > 4 mM (inactive)
COC(=O)c1cccc(N)c1 | > 4 mM (inactive)
Cc1cc(=O)n2[nH]c(COc3ccccc3)nc2n1 | > 4 mM (inactive)
Cc1nc(-c2cccc(-c3noc(C)n3)c2)no1 | > 4 mM (inactive)
CN1C(=O)/C(=C\c2ccc[nH]2)SC1=S | > 4 mM (inactive)
Cc1cc(NC(=O)c2c(F)c(F)c(F)c(F)c2F)no1 | > 4 mM (inactive)
N/C(=N/S(=O)(=O)c1cccs1)c1ccccc1 | > 4 mM (inactive)
Nc1nnc(SCc2ccc(F)cc2)s1 | > 4 mM (inactive)
Cc1c(C(=O)N2CCOCC2)oc2c1C(=O)CC(C)(C)C2 | > 4 mM (inactive)
CCCCCCCCCCCCCc1ccco1 | > 4 mM (inactive)
CSc1ccccc1C(=O)N1CCOCC1 | > 4 mM (inactive)
COc1ccc2c(c1)=C(c1sc(N)nc1O)C(=O)N=2 | > 4 mM (inactive)
c1ccc(CNc2ncnc3nc[nH]c23)nc1 | > 4 mM (inactive)
CC12CCC3C(CC3(C)C)C(C)(CCC1=O)O2 (stereo not given) | > 4 mM (inactive)
Cc1ccc(NS(=O)(=O)N2CCCCC2)cc1 | 0.425 mM
COC(=O)Nc1nc2c(C)cccc2s1 | > 4 mM (inactive)
CC(=O)Oc1cc(-c2coc3cc(OC(C)=O)c(OC(C)=O)c(OC(C)=O)c3c2=O)cc(OC(C)=O)c1OC(C)=O | > 4 mM (inactive)
CN1C2C[C@H](OC(=O)[C@H](CO)c3ccccc3)C[C@H]1[C@@H](O)C2 | > 4 mM (inactive)
Cc1ccc(CCNc2ccccc2)c[n+]1[O-] | > 4 mM (inactive)
COc1ccc2c(c1)[n+](=O)c(C(C)=O)c(C)n2[O-] | > 4 mM (inactive)
Cc1nnc(N2CCN(Cc3ccccc3)CC2)[nH]c1=O | > 4 mM (inactive)
C=C1C(=O)O[C@@H]2C[C@@]3(C)CCC[C@H](C)C3=C[C@H]12 | > 4 mM (inactive)

Compound | Kd
CC(=O)Nc1ccc(S(=O)(=O)NC(N)=O)cc1 | > 4 mM (inactive)
NCc1cccc2c1OCCO2 | > 4 mM (inactive)
NC(=O)c1ccccc1NC(=O)C1CC1 | > 4 mM (inactive)
COc1ccc(Cl)cc1NC(=O)c1ccco1 | > 4 mM (inactive)
C=Cc1c(C)c2cc3[nH]c(cc4nc(cc5nc(cc1[nH]2)C(C)=C5CCC(=O)O)C(CCC(=O)O)=C4C)c(C)c3C=C | > 4 mM (inactive)
O=C(O)CC1NCCNC1=O (stereo not given) | > 4 mM (inactive)
O=C(O[C@@H]1Cc2c(O)cc(O)cc2O[C@@H]1c1cc(O)c(O)c(O)c1-c1c([C@H]2Oc3cc(O)cc(O)c3C[C@H]2O)cc(O)c(O)c1O)c1cc(O)c(O)c(O)c1 | > 4 mM (inactive)
O=C(O)CCCCCCCCCCCCC1C=CCC1 (stereo not given) | > 4 mM (inactive)
Cc1occc1C(=O)Nc1ccc2c(c1)CCC2 | > 4 mM (inactive)
C=C1CCC2C(CC2(C)C)C(=C)CC/C1=N/O (stereo not given) | > 4 mM (inactive)
O=c1c2ccccc2nc2n1CCS2 | > 4 mM (inactive)
CC(O)c1nc2ccccc2[nH]1 (stereo not given) | > 4 mM (inactive)
O=c1[nH]cc(COCc2ccccc2)c(=O)[nH]1 | > 4 mM (inactive)
N#Cc1cnn(-c2ccc(Cl)cc2)c1N | > 4 mM (inactive)
COc1ccc2nc(SCC(N)=O)[nH]c2c1 | > 4 mM (inactive)
C=CCc1ccc(O)c(OC)c1 | > 4 mM (inactive)
CN1CN/C(=N\[N+](=O)[O-])N(c2ccccc2)C1 | > 4 mM (inactive)
OC[C@H]1O[C@@H](O[C@H]2[C@H](O)[C@@H](O)[C@@H](O)O[C@@H]2CO)[C@H](O)[C@@H](O)[C@@H]1O | > 4 mM (inactive)
CC(C)Nc1ncnc2c1nnn2C | > 4 mM (inactive)
O=C(CO)N/N=C/c1ccccc1F | > 4 mM (inactive)
Nc1cc(F)ccc1-n1ccnc1 | > 4 mM (inactive)
CCOc1ccc(C(=O)c2ccncc2)cc1 | > 4 mM (inactive)

Compound | Kd
CN(C)c1nc(N)nc(Cn2ccnc2)n1 | > 4 mM (inactive)
NC(=O)c1ccccc1NC(=O)c1cccnc1 | > 4 mM (inactive)
NCc1csc(-c2ccccc2)n1 | > 4 mM (inactive)
Nc1cc(=O)[nH]c(SCC(=O)Nc2nccs2)n1 | > 4 mM (inactive)
CC(=O)Oc1c2c(c3c(c1CC=C(C)C)O[C@]14C(=C[C@@H]5CC1C(C)(C)OC4(C/C=C(\C)C(=O)O)C5=O)C3=O)OC(C)(CCC=C(C)C)C=C2 (stereo not given in full) | > 4 mM (inactive)
NC(=O)CNC(=O)c1ccc2ccccc2n1 | > 4 mM (inactive)
Cc1c(/C=N/O)cnn1C | > 4 mM (inactive)
COc1ccc([C@@H](C)C(=O)c2ccc(O)cc2O)cc1 | > 4 mM (inactive)
CC(C)(C(N)=O)/[N+]([O-])=C\c1ccccc1 | > 4 mM (inactive)
COC(=O)CC1SC(=O)NC1=O (stereo not given) | > 4 mM (inactive)
CN1C(CC(=O)c2ccccc2)CCCC1CC(O)c1ccccc1 (stereo not given) | > 4 mM (inactive)
COc1ccccc1-c1noc(-c2ccncc2)n1 | > 4 mM (inactive)
Fc1ccc2onc(C3CCNCC3)c2c1 | > 4 mM (inactive)
Cc1cccc(NC(=O)c2ccc(=O)[nH]n2)c1 | > 4 mM (inactive)
CC(=O)N/N=C(\C)c1cccc(N)c1 | > 4 mM (inactive)
CC(=O)c1cccc(NC(=O)Nc2c(C)nn(C)c2C)c1 | > 4 mM (inactive)
O=C(O)c1ccnn1-c1ccccc1 | > 4 mM (inactive)
S=C(c1ccc(N2CCOCC2)cc1)N1CCOCC1 | > 4 mM (inactive)
S=C(NCc1ccco1)NN1CCOCC1 | > 4 mM (inactive)
C/C(=N\NC(N)=S)C(=O)O | > 4 mM (inactive)
CS(=O)(=O)c1ccccc1C(=O)Nc1nccs1 | > 4 mM (inactive)
NC(=O)NC1C=CS(=O)(=O)C1 (stereo not given) | > 4 mM (inactive)

Compound | Kd
CN1CCC(=NNC(=O)c2ccco2)CC1 | > 4 mM (inactive)
C[C@H](CCC(=O)O)[C@H]1CCC2C3C(CC[C@@]21C)[C@@]1(C)CC[C@@H](O)C[C@H]1C[C@@H]3O (stereo not given in full) | > 4 mM (inactive)
NCc1csc2ccccc12 | > 4 mM (inactive)
Nc1cc(C(=O)O)ccc1N1CCCCCC1 | > 4 mM (inactive)
CSc1nnc2[nH]c(=O)cc(N)n12 | > 4 mM (inactive)
CN1CCC(N2CCOCC2)CC1 | > 4 mM (inactive)
O=P(c1ccccc1)(c1ccccc1)C1CCOCC1 | > 4 mM (inactive)
Cc1ccccc1NC(=O)C1CCC(=O)N1 (stereo not given) | > 4 mM (inactive)
NCCc1cnc[nH]1 | > 4 mM (inactive)
COc1c2ccoc2cc2oc(C)cc(=O)c12 | > 4 mM (inactive)
COc1ccc(Cl)cc1-c1n[nH]c(=S)n1C | > 4 mM (inactive)
O=c1[nH]cnc2nc[nH]c12 | > 4 mM (inactive)
NCc1cccc(-n2cccc2)c1 | > 4 mM (inactive)
CC1(C)N=C2C(=[N+]1[O-])CCC/C2=N\O | > 4 mM (inactive)
Cc1nc2nc(-c3ccco3)nn2c(C)c1Cl | > 4 mM (inactive)
C[C@@H]1CCC2[C@](C)(CO)[C@@H](O)CC[C@]2(C)[C@@]12CC[C@@](CO)(CCO)O2 (stereo not given in full) | > 4 mM (inactive)
CC(=O)Nc1cc(C(F)(F)F)ccc1N1CCOCC1 | > 4 mM (inactive)
O=[n+]1cc(-c2ccccc2)n([O-])c2c1CCC2 | > 4 mM (inactive)
O=c1[nH]cc(NC(=S)N2CCOCC2)c(=O)[nH]1 | > 4 mM (inactive)
